The values below come from ChEMBL document CHEMBL1136867, “2009 Edward E Smissman Award. Pharmaceutical "gold" from neurostabilizing agents: topiramate and successor molecules” (J Med Chem, 2009).

Usually IC50 stands for the concentration that inhibits the measured activity by half. Lower therefore signals inhibition by little substance.

The assay has as its target Carbonic anhydrase 2 (Homo sapiens, UniProt P00918). The assay can be described thus: Inhibition of human carbonic anhydrase 2.

`NS(=O)(=O)NCc1csc2ccccc12`: the IC50 worked out at 110 µM.
